Literature values, collected in patent publication US20220249506A1, “Meloxicam-Containing Granulated Product” (SSP Co., Ltd., priority 2019, published 2022).

Conditions: low pH range of pH 5.0 or less

- Solubility in water: almost insoluble in water
Compound: Cc1cnc(NC(=O)C2=C(O)c3ccccc3S(=O)(=O)N2C)s1 [meloxicam]
